Data published in PubChem BioAssay (NCI).
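GI50 marks 50% less growth. The concentration for full growth arrest is given as TGI.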

Experiments:
Assay in all cases: NCI anticancer screen, dose series, 384-well format
786-0 renal = tested on: 786-0 renal
A549 NSCLC = tested on: A549 NSCLC
ACHN renal = tested on: ACHN renal
BT-549 breast = tested on: BT-549 breast
CAKI-1 renal = tested on: CAKI-1 renal
CCRF-CEM leukemia = tested on: CCRF-CEM leukemia
COLO 205 colon = tested on: COLO 205 colon
DU-145 prostate = tested on: DU-145 prostate
EKVX NSCLC = tested on: EKVX NSCLC
HCC-2998 colon = tested on: HCC-2998 colon
HCT-15 colon = tested on: HCT-15 colon
HL-60(TB) leukemia = tested on: HL-60(TB) leukemia
HOP-62 NSCLC = tested on: HOP-62 NSCLC
HOP-92 NSCLC = tested on: HOP-92 NSCLC
HS 578T breast = tested on: HS 578T breast
HT29 colon = tested on: HT29 colon
IGROV1 ovarian = tested on: IGROV1 ovarian
KM12 colon = tested on: KM12 colon
M14 melanoma = tested on: M14 melanoma
MALME-3M melanoma = tested on: MALME-3M melanoma
MCF7 breast = tested on: MCF7 breast
MDA-MB-231 breast = tested on: MDA-MB-231 breast
MDA-MB-435 melanoma = tested on: MDA-MB-435 melanoma
MDA-MB-468 breast = tested on: MDA-MB-468 breast
MOLT-4 leukemia = tested on: MOLT-4 leukemia
NCI-H226 lung = tested on: NCI-H226 lung
NCI-H23 lung = tested on: NCI-H23 lung
NCI-H322M lung = tested on: NCI-H322M lung
NCI-H460 NSCLC = tested on: NCI-H460 NSCLC
NCI-H522 lung = tested on: NCI-H522 lung
NCI/ADR-RES ovarian = tested on: NCI/ADR-RES ovarian
OVCAR-3 ovarian = tested on: OVCAR-3 ovarian
OVCAR-4 ovarian = tested on: OVCAR-4 ovarian
OVCAR-5 ovarian = tested on: OVCAR-5 ovarian
OVCAR-8 ovarian = tested on: OVCAR-8 ovarian
PC-3 prostate = tested on: PC-3 prostate
RPMI-8226 leukemia = tested on: RPMI-8226 leukemia
RXF 393 renal = tested on: RXF 393 renal
SF-268 CNS = tested on: SF-268 CNS
SF-295 CNS = tested on: SF-295 CNS
SF-539 CNS = tested on: SF-539 CNS
SK-MEL-2 melanoma = tested on: SK-MEL-2 melanoma
SK-MEL-28 melanoma = tested on: SK-MEL-28 melanoma
SK-MEL-5 melanoma = tested on: SK-MEL-5 melanoma
SK-OV-3 ovarian = tested on: SK-OV-3 ovarian
SN12C renal = tested on: SN12C renal
SNB-19 CNS = tested on: SNB-19 CNS
SNB-75 CNS = tested on: SNB-75 CNS
SR leukemia = tested on: SR leukemia
SW-620 colon = tested on: SW-620 colon
T-47D breast = tested on: T-47D breast
TK-10 renal = tested on: TK-10 renal
U251 glioblastoma = tested on: U251 glioblastoma
UACC-257 melanoma = tested on: UACC-257 melanoma
UACC-62 melanoma = tested on: UACC-62 melanoma

`Nc1ccn([C@@H]2S[C@H](CO)[C@@H](O)[C@@H]2F)c(=O)n1` showed a GI50 (786-0 renal) of 44.2 nM, a TGI (786-0 renal) of 319 nM and a GI50 (A549 NSCLC) of 57.1 nM. The TGI (A549 NSCLC) was over 100000 nM, the GI50 (ACHN renal) was 23.8 nM and the TGI (ACHN renal) was 56.6 nM. The GI50 (BT-549 breast) was 22.6 nM, the TGI (BT-549 breast) was 192 nM and the GI50 (CAKI-1 renal) was 37.3 nM. For the same compound, the TGI (CAKI-1 renal) was 797 nM, the GI50 (CCRF-CEM leukemia) was under 10 nM and the TGI (CCRF-CEM leukemia) was 12.2 nM. For the same compound, the GI50 (COLO 205 colon) was 49.3 nM, the TGI (COLO 205 colon) was 277 nM and the GI50 (DU-145 prostate) was 24.3 nM. It also gave a TGI (DU-145 prostate) of 71.2 nM, a GI50 (EKVX NSCLC) of 434 nM and a TGI (EKVX NSCLC) of over 100000 nM. For the same compound, the GI50 (HCC-2998 colon) was 15.2 nM, the TGI (HCC-2998 colon) was 255 nM and the GI50 (HCT-15 colon) was 55.7 nM. For the same compound, the TGI (HCT-15 colon) was over 100000 nM, the GI50 (HL-60(TB) leukemia) was 20.3 nM and the TGI (HL-60(TB) leukemia) was 39 nM. The GI50 (HOP-62 NSCLC) was 14.3 nM, the TGI (HOP-62 NSCLC) was 54.8 nM and the GI50 (HOP-92 NSCLC) was 25.2 nM. For the same compound, the TGI (HOP-92 NSCLC) was 9020 nM, the GI50 (HS 578T breast) was 53.2 nM and the TGI (HS 578T breast) was over 100000 nM. It also gave a GI50 (HT29 colon) of 116 nM, a TGI (HT29 colon) of 15600 nM and a GI50 (IGROV1 ovarian) of 310 nM. For the same compound, the TGI (IGROV1 ovarian) was 57500 nM, the GI50 (KM12 colon) was 86.2 nM and the TGI (KM12 colon) was over 100000 nM. For the same compound, the GI50 (M14 melanoma) was 38.7 nM, the TGI (M14 melanoma) was 163 nM and the GI50 (MALME-3M melanoma) was under 10 nM. It also gave a TGI (MALME-3M melanoma) of 316 nM, a GI50 (MCF7 breast) of 90.9 nM and a TGI (MCF7 breast) of over 100000 nM. The GI50 (MDA-MB-231 breast) was 20.3 nM, the TGI (MDA-MB-231 breast) was 600 nM and the GI50 (MDA-MB-435 melanoma) was 383 nM. It also gave a TGI (MDA-MB-435 melanoma) of over 100000 nM, a GI50 (MDA-MB-468 breast) of 61.7 nM and a TGI (MDA-MB-468 breast) of 624 nM. For the same compound, the GI50 (MOLT-4 leukemia) was under 10 nM, the GI50 (NCI-H226 lung) was 84.9 nM and the TGI (NCI-H226 lung) was 320 nM. The GI50 (NCI-H23 lung) was 23.7 nM, the TGI (NCI-H23 lung) was 64.5 nM and the GI50 (NCI-H322M lung) was 179 nM. It also gave a TGI (NCI-H322M lung) of 50400 nM, a GI50 (NCI-H460 NSCLC) of 24 nM and a TGI (NCI-H460 NSCLC) of 91 nM. The GI50 (NCI-H522 lung) was 11.6 nM, the TGI (NCI-H522 lung) was 95 nM and the GI50 (NCI/ADR-RES ovarian) was 16.5 nM. For the same compound, the TGI (NCI/ADR-RES ovarian) was 48.1 nM, the GI50 (OVCAR-3 ovarian) was 47.3 nM and the TGI (OVCAR-3 ovarian) was 6890 nM. The GI50 (OVCAR-4 ovarian) was over 100000 nM, the TGI (OVCAR-4 ovarian) was over 100000 nM and the GI50 (OVCAR-5 ovarian) was 150 nM. It also gave a GI50 (OVCAR-8 ovarian) of 13.4 nM, a TGI (OVCAR-8 ovarian) of 35.2 nM and a GI50 (PC-3 prostate) of 55.9 nM. The TGI (PC-3 prostate) was over 100000 nM, the GI50 (RPMI-8226 leukemia) was 194 nM and the TGI (RPMI-8226 leukemia) was 449 nM. For the same compound, the GI50 (RXF 393 renal) was 77.4 nM, the TGI (RXF 393 renal) was 767 nM and the GI50 (SF-268 CNS) was 140 nM. It also gave a TGI (SF-268 CNS) of 349 nM, a GI50 (SF-295 CNS) of 143 nM and a TGI (SF-295 CNS) of 460 nM. It also gave a GI50 (SF-539 CNS) of 138 nM, a TGI (SF-539 CNS) of 352 nM and a GI50 (SK-MEL-2 melanoma) of 56.5 nM. For the same compound, the TGI (SK-MEL-2 melanoma) was 201 nM, the GI50 (SK-MEL-28 melanoma) was 74.3 nM and the TGI (SK-MEL-28 melanoma) was 672 nM. It also gave a GI50 (SK-MEL-5 melanoma) of 53.6 nM, a TGI (SK-MEL-5 melanoma) of 252 nM and a GI50 (SK-OV-3 ovarian) of 24.2 nM. It also gave a TGI (SK-OV-3 ovarian) of 182 nM, a GI50 (SN12C renal) of 23.8 nM and a TGI (SN12C renal) of 69.5 nM. For the same compound, the GI50 (SNB-19 CNS) was 22.5 nM, the TGI (SNB-19 CNS) was 387 nM and the GI50 (SNB-75 CNS) was 54 nM. It also gave a TGI (SNB-75 CNS) of 2680 nM, a GI50 (SR leukemia) of 139 nM and a TGI (SR leukemia) of 271 nM. For the same compound, the GI50 (SW-620 colon) was 250 nM, the TGI (SW-620 colon) was over 100000 nM and the GI50 (T-47D breast) was 310 nM. For the same compound, the TGI (T-47D breast) was 35500 nM, the GI50 (TK-10 renal) was over 100000 nM and the TGI (TK-10 renal) was over 100000 nM. For the same compound, the GI50 (U251 glioblastoma) was 172 nM, the TGI (U251 glioblastoma) was 572 nM and the GI50 (UACC-257 melanoma) was 318 nM. For the same compound, the TGI (UACC-257 melanoma) was 7780 nM, the GI50 (UACC-62 melanoma) was 184 nM and the TGI (UACC-62 melanoma) was 443 nM.
